Test results published in patent US7208281B2 (priority 2001, dated 2007).
Like-named read-outs stand apart in the source and are kept apart here.

Key:
PrPsc [1] = conditions: cited from earlier work
prions = conditions: cited from earlier work
PrPsc [2] = test system: PrPsc
PrPC [3] = target: PrPC (Homo sapiens, UniProt P04156); conditions: microtiter plate coated with fibronectin
PrPC [4] = target: PrPC (Bos taurus, UniProt P10279); conditions: fibronectin coupled with europium nanobeads, incubated with sample
Sequence of PrPC (Bos taurus, UniProt P10279) (P10279 25-241 limits assumed): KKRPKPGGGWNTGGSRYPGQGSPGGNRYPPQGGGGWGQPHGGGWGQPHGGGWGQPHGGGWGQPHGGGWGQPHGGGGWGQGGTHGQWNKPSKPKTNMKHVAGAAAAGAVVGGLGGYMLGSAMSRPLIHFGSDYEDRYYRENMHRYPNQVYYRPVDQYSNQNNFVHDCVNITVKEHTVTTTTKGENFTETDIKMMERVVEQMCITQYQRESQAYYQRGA

PrPsc [5] = test system: PrPsc; remark: listed apart in the source

Substance: plasminogen
- binding of PrPsc (PrPsc [1]): binding specifically

Substance: poly-b-xylose-2,3-disulphonate [Pentosan]
- inhibition of the production of prions (prions): inhibits the production of prions most strongly

Substance: fibronectin
- adherence of pathological PrP (PrPsc) (PrPsc [2]): adheres
- adherence of normal PrP (PrPc) (PrPC [3]): does not
- adherence of normal PrP (PrPc) (PrPC [4]): does not
- adherence of pathological PrP (PrPsc) (PrPsc [5]): adheres
